Where a name gives a salt, the structure may show the parent alone.
Molecular target: kinase domain of IRE1 alpha (His-tagged kinase dead construct KR, AA G547-L977, D688N) (Homo sapiens (Human), UniProt O75460, D688N)
Experiment: IRE1α TR-FRET competition binding assay
Conditions: competition with Kinase Tracer 236, 0.1 μM; one hour at room temperature
Procedure, shortened: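 Compound displacement of an ATP-site fluorescent tracer (0.1 μM final) measured by TR-FRET after 1 h at room temperature. Protein, a His-tagged D688N kinase/RNase construct from Sf9 cells (0.006 μM final), was pre-bound 1 h at 4° C to Eu anti-His antibody (0.002 μM) in pH 7.5 HEPES buffer.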

Sequence of kinase domain of IRE1 alpha (His-tagged kinase dead construct KR, AA G547-L977, D688N) (O75460 547-977 D688N): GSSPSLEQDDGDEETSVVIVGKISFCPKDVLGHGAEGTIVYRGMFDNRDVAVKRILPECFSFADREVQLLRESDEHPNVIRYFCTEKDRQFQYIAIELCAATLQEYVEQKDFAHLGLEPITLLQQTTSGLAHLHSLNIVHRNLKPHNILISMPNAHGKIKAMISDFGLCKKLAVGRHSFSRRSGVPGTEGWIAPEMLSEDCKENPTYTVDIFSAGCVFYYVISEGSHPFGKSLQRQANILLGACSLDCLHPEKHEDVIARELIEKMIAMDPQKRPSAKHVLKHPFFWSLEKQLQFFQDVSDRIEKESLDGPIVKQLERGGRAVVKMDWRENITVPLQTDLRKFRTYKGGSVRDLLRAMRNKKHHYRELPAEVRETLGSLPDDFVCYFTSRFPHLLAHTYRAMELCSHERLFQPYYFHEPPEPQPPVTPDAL

IC50 [nM] | Structure (SMILES)
380 | Cn1cnc(S(=O)(=O)Nc2ccc(Oc3ncccc3-c3ccnc(N[C@H]4CCCNC4)n3)c(F)c2F)c1 [Compound 221, (S)-N-(2,3-difluoro-4-((3-(2-(piperidin-3-ylamino)pyrimidin-4-yl)pyridin-2-yl)oxy)phenyl)-1-methyl-1H-imidazole-4-sulfonamide]
50 | Cc1c(NS(=O)(=O)c2ccccc2Cl)ccc(Oc2ncccc2-c2ccnc(N[C@H]3CCCNC3)n2)c1C [Compound 123, (S)-2-Chloro-N-(2,3-dimethyl-4-((3-(2-(piperidin-3-ylamino)pyrimidin-4-yl)pyridin-2-yl)oxy)phenyl)benzenesulfonamide]
2.9 | N#Cc1ccccc1CS(=O)(=O)Nc1ccc(Oc2ncccc2-c2ccnc(N[C@H]3CCCNC3)n2)c(F)c1F [Compound 187, (S)-1-(2-cyanophenyl)-N-(2,3-difluoro-4-((3-(2-(piperidin-3-ylamino)pyrimidin-4-yl)pyridin-2-yl)oxy)phenyl)methanesulfonamide]
0.61 | O=S(=O)(Cc1ccccc1F)Nc1c(F)cc(Oc2ncccc2-c2ccnc(NC3CNCC(C4CC4)C3)n2)c(F)c1F (single isomer, unassigned) [Compound 326, N-(4-((3-(2-((5-Cyclopropylpiperidin-3-yl)amino)pyrimidin-4-yl)pyridin-2-yl)oxy)-2,3,6-trifluorophenyl)-1-(2-fluorophenyl)methanesulfonamide]
0.3 | Cc1ccccc1CS(=O)(=O)Nc1c(F)cc(Oc2ncccc2-c2ccnc(N[C@@H]3CNC[C@@H](F)C3)n2)c(F)c1F [Compound 386, 1-o-Tolyl-N-(2,3,6-trifluoro-4-((3-(2-(((3S,5S)-5-fluoropiperidin-3-yl)amino)pyrimidin-4-yl)pyridin-2-yl)oxy)phenyl)methanesulfonamide]
5.7 | O=S(=O)(Cc1ccccc1)Nc1ccc(Oc2ncccc2-c2ccnc(N[C@H]3CCCNC3)n2)cc1F [Compound 106, (S)-N-(2-fluoro-4-((3-(2-(piperidin-3-ylamino)pyrimidin-4-yl)pyridin-2-yl)oxy)phenyl)-1-phenylmethanesulfonamide hydrochloride]
2.5 | O=S(=O)(Cc1ccc(C(F)(F)F)nc1)Nc1c(F)cc(Oc2ncccc2-c2ccnc(N[C@H]3CCCNC3)n2)c(F)c1F [Compound 196, (S)-N-(2,3,6-trifluoro-4-((3-(2-(piperidin-3-ylamino)pyrimidin-4-yl)pyridin-2-yl)oxy)phenyl)-1-(6-(trifluoromethyl)pyridin-3-yl)methanesulfonamide]
19 | CC(F)C1CNCC(Nc2nccc(-c3cccnc3Oc3cc(F)c(NS(=O)(=O)Cc4ccccc4)c(F)c3F)n2)C1 (single isomer, unassigned) [Compound 344, 1-Phenyl-N-(2,3,6-trifluoro-4-((3-(2-((5-(1-fluoroethyl)piperidin-3-yl)amino)pyrimidin-4-yl)pyridin-2-yl)oxy)phenyl)methanesulfonamide hydrochloride]
35 | O=S(=O)(Cc1ccc(F)cc1F)Nc1c(F)cc(Oc2ncccc2-c2ccnc(N[C@@H]3CNC[C@H](CF)C3)n2)c(F)c1F [Compound 320, 1-(2,4-Difluorophenyl)-N-(2,3,6-trifluoro-4-((3-(2-(((3S,5R)-5-(fluoromethyl)piperidin-3-yl)amino)pyrimidin-4-yl)pyridin-2-yl)oxy)phenyl)methanesulfonamide]
11 | O=S(=O)(Nc1ccc(Oc2ncccc2-c2ccnc(N[C@H]3CCCNC3)n2)c(F)c1F)c1cccc(OC(F)F)c1 [Compound 208, (S)-N-(2,3-difluoro-4-((3-(2-(piperidin-3-ylamino)pyrimidin-4-yl)pyridin-2-yl)oxy)phenyl)-3-(difluoromethoxy)benzenesulfonamide]
33 | O=S(=O)(Cc1ccccc1)Nc1c(F)cc(Oc2ncccc2-c2ccnc(N[C@H]3CNC[C@H](F)C3)n2)c(F)c1F [Compound 193, 1-phenyl-N-(2,3,6-trifluoro-4-((3-(2-(((3R,5R)-5-fluoro-3-piperidyl)amino)pyrimidin-4-yl)-2-pyridyl)oxy)phenyl)methanesulfonamide]
3.5 | Cc1cc(NS(=O)(=O)Cc2ccccc2)c(F)c(F)c1Oc1ncccc1-c1ccnc(N[C@@H]2CNC[C@@H](F)C2)n1 [Compound 178, N-(2,3-difluoro-4-((3-(2-(((3S,5S)-5-fluoro-3-piperidyl)amino)pyrimidin-4-yl)-2-pyridyl)oxy)-5-methyl-phenyl)-1-phenyl-methanesulfonamide]
4 | O=S(=O)(Cc1ccccc1F)Nc1ccc(Oc2ncccc2-c2ccnc(N[C@H]3CCCNC3)n2)c(F)c1F [Compound 146, (S)-N-(2,3-difluoro-4-((3-(2-(piperidin-3-ylamino)pyrimidin-4-yl)pyridin-2-yl)oxy)phenyl)-1-(2-fluorophenyl)methanesulfonamide hydrochloride]
19 | N#Cc1cccc(S(=O)(=O)Nc2ccc(Oc3ncccc3-c3ccnc(N[C@H]4CCCNC4)n3)c(F)c2F)c1 [Compound 220, (S)-3-cyano-N-(2,3-difluoro-4-((3-(2-(piperidin-3-ylamino)pyrimidin-4-yl)pyridin-2-yl)oxy)phenyl)benzenesulfonamide]
0.23 | O=S(=O)(Cc1ccc(C2CC2)cc1)Nc1c(F)cc(Oc2ncccc2-c2ccnc(N[C@@H]3CNC[C@@H](F)C3)n2)c(F)c1F [Compound 315, 1-(4-Cyclopropylphenyl)-N-(2,3,6-trifluoro-4-((3-(2-(((3S,5S)-5-fluoropiperidin-3-yl)amino)pyrimidin-4-yl)pyridin-2-yl)oxy)phenyl)methanesulfonamide]
0.3 | O=S(=O)(Cc1ccccc1C(F)(F)F)Nc1c(F)cc(Oc2ncccc2-c2ccnc(N[C@@H]3CNC[C@@H](F)C3)n2)c(F)c1F [Compound 373, N-(2,3,6-Trifluoro-4-((3-(2-(((3S,5S)-5-fluoropiperidin-3-yl)amino)pyrimidin-4-yl)pyridin-2-yl)oxy)phenyl)-1-(2-(trifluoromethyl)phenyl)methanesulfonamide]
0.2 | O=S(=O)(Cc1c(F)cccc1F)Nc1c(F)cc(Oc2ncccc2-c2ccnc(N[C@@H]3CNC[C@@H](F)C3)n2)c(F)c1F [Compound 363, 1-(2,6-Difluorophenyl)-N-[2,3,6-trifluoro-4-[[3-[2-[[(3S,5S)-5-fluoro-3-piperidyl]amino]pyrimidin-4-yl]-2-pyridyl]oxy]phenyl]methanesulfonamide]
0.48 | COC1CNCC(Nc2nccc(-c3cccnc3Oc3cc(F)c(NS(=O)(=O)Cc4ccccc4)c(F)c3F)n2)C1 (single isomer, unassigned) [Compound 319, 1-Phenyl-N-(2,3,6-trifluoro-4-((3-(2-((5-methoxypiperidin-3-yl)amino)pyrimidin-4-yl)pyridin-2-yl)oxy)phenyl)methanesulfonamide]
9 | Cn1ccc(CS(=O)(=O)Nc2c(F)cc(Oc3ncccc3-c3ccnc(N[C@H]4CCCNC4)n3)c(F)c2F)n1 [Compound 236, (S)-1-(1-methyl-1H-pyrazol-3-yl)-N-(2,3,6-trifluoro-4-(3-(2-(piperidin-3-ylamino)pyrimidin-4-yl)pyridin-2-yloxy)phenyl)methanesulfonamide]
9.2 | O=S(=O)(CC1CCCC1)Nc1ccc(Oc2ncccc2-c2ccnc(N[C@H]3CCCNC3)n2)c(F)c1F [Compound 228, (S)-1-cyclopentyl-N-(2,3-difluoro-4-((3-(2-(piperidin-3-ylamino)pyrimidin-4-yl)pyridin-2-yl)oxy)phenyl)methanesulfonamide]

— US12071425B2 (Genentech, Inc., priority 2018, dated 2024)
